Test results from patent US8946234B2, “Halogen-substituted compounds” (Bayer CropScience AG, priority 2008, dated 2015).

experiment: physchem; assay type: physicochemical; conditions: not given
Experimental: ^a) Note regarding the determination of the log P values and mass detection: The log P values given were determined in accordance with EEC Directive 79/831 Annex V.A8 by HPLC (High Performance Liquid Chromatography) on a phase inversion column (C18). Agilent 1100 LC system; 50*4.6 Zorbax Eclipse Plus C18 1.8 micron; eluent A: acetonitrile (0.1% formic acid); eluent B: water (0.09% formic acid); linear gradient from 10% acetonitrile to 95% acetonitrile in 4.25 min, then 95% acetonitrile for a further 1.25 min; oven temperature 55° C.; flow: 2.0 ml/min. The mass detection is carried out via an Agilend MSD system.

Compound	logP
CC(C)N(C(=O)c1c(C(F)(F)F)c(C(F)(F)C(F)(F)F)nn1C)c1ccc(Cl)c(C(=O)NC2CC2)c1 [Ik-137]	3.74^a)
O=C(NC1CC1)c1cc(NC(=O)c2cnc(C(F)(F)C(F)(F)F)nc2C(F)(F)C(F)(F)F)ccc1Cl [Ib-33]	3.64^a)
CC(C)NC(=O)c1cc(NC(=O)c2ncc(C(F)(F)F)cc2Cl)ccc1Cl [Ii-2]	2.73^a)
Cn1nc(C(F)(F)C(F)(F)F)c(C(F)(F)F)c1C(=O)Nc1cc(F)c(I)c(C(=O)NCc2ccccc2)c1 [Ik-227]	4.20^a)
Cn1nc(C(F)(F)C(F)(F)F)c(C(F)(F)F)c1C(=O)Nc1ccc(Cl)c(C(=O)NCCF)c1 [Ik-88]	3.21^a)
Cn1nc(C(F)(F)C(F)(F)F)c(C(F)(F)F)c1C(=O)Nc1ccc(Cl)c(C(=O)NCc2ccccc2)c1Cl [Ik-149]	4.33^a)
Cn1nc(C(F)(F)C(F)(F)F)c(C(F)(F)F)c1C(=O)Nc1ccc(F)c(C(=O)NCc2ccccc2)c1 [Ik-157]	3.95^a)
Cn1nc(C(F)(F)C(F)(F)F)c(C(F)(F)F)c1C(=O)Nc1cc(F)c(Cl)c(C(=O)NCC(F)(F)F)c1 [Ik-190]	3.91^a)
Cn1nc(C(F)(F)C(F)(F)F)c(C(F)(F)F)c1C(=O)Nc1cc(F)cc(C(=O)NCc2ccccc2)c1 [Ik-162]	4.05^a)
CSc1c(Cl)cc(NC(=O)c2c(C(F)(F)F)c(C(F)(F)C(F)(F)F)nn2C)cc1C(=O)NCc1ccccc1 [Ik-202]	4.39^a)
Cn1nc(OC(F)F)c(Br)c1C(=O)Nc1ccc(Cl)c(C(=O)NCC(F)(F)F)c1 [Ik-236]	2.88^a)
Cn1nc(OC(F)F)c(I)c1C(=O)Nc1ccc(Cl)c(C(=O)NC2CC2)c1 [Ik-240]	2.54^a)
Cn1nc(OC(F)F)c(Cl)c1C(=O)Nc1ccc(Cl)c(C(=O)NC2CC2)c1 [Ik-238]	2.52^a)
CC(NC(=O)c1cc(NC(=O)c2c(Br)c(C(F)(F)C(F)(F)F)nn2C)ccc1Cl)C(F)(F)F (stereo not drawn) [Ik-11]	2.00^a)
Cn1nc(C2CC2)c(C(F)(F)F)c1C(=O)Nc1ccc(Cl)c(C(=O)NC2CC2)c1 [Ik-261]	2.78^a)
Cn1nc(C(F)(F)C(F)(F)F)c(C(F)(F)F)c1C(=O)Nc1cc(C(=O)NCC(F)(F)F)c(F)cc1Cl [Ik-151]	3.83^a)
CCSCC(C)NC(=O)c1cc(NC(=O)c2c(C(F)(F)F)c(C(F)(F)C(F)(F)F)nn2C)ccc1Cl (stereo not drawn) [Ik-89]	4.09^a)
Cn1nc(OC(F)F)c(Cl)c1C(=O)Nc1ccc(Cl)c(C(=O)NCC(F)(F)F)c1 [Ik-239]	2.89^a)
CC(C)NC(=O)c1cc(NC(=O)c2c(Br)c(C(F)(F)C(F)(F)F)nn2C)ccc1Cl [Ik-27]	3.49^a)
Cn1nc(OC(F)F)c(Br)c1C(=O)Nc1ccc(Cl)c(C(=O)NC2CC2)c1 [Ik-237]	2.51^a)
Cn1nc(C(F)(F)C(F)(F)F)c(C(F)(F)F)c1C(=O)Nc1ccc(Cl)c(C(=O)NCC=C(Cl)Cl)c1 [Ik-186]	4.09^a)
CC(C)NC(=O)c1cccc(NC(=O)c2c(C(F)(F)F)c(C(F)(F)C(F)(F)F)nn2C)c1Cl [Ik-77]	3.47^a)

same assay, conditions: HPLC method a), eluent acetonitrile/water with formic acid; read-out: logP

Compound	chromatographic logP
Cn1cc(Br)c(C(F)(F)C(F)(F)C(F)(F)F)n1 [4-Bromo-1-methyl-3-heptafluoropropyl-1H-pyrazole]	3.53
Cn1nc(C(F)(F)C(F)(F)C(F)(F)C(F)(F)F)cc1C(=O)O [1-Methyl-3-nonafluorobutyl-1H-pyrazole-5-carboxylic acid]	3.01

same assay, conditions: HPLC phase inversion (reversed-phase) C18 column, HPLC method a), eluent acetonitrile/water with formic acid; read-out: logP

chromatographic logP	Compound
2.85	Cn1nc(C(F)(F)C(F)(F)F)c(C(F)(F)F)c1C(=O)Nc1cc(C(=O)O)c(Br)cn1 [5-bromo-2-({[1-methyl-3-(pentafluoroethyl)-4-(trifluoromethyl)-1H-pyrazol-5-yl]carbonyl}amino)isonicotinic acid]
1.26	Cc1nc(C(F)(F)F)ncc1C(=O)O [4-Methyl-2-(trifluoromethyl)pyrimidine-5-carboxylic acid]
3.56	Cn1nc(C(F)(F)OC(F)(F)OC(F)(F)F)c(Br)c1C(=O)O [4-Bromo-3-{[(difluoro(trifluoromethoxy)methoxy](difluoro)methyl}-1-methyl-1H-pyrazole-5-carboxylic acid]
